Data as given in patent publication US8765946B2, “Methods of preparing and using quinazoline and quinoline derivatives” (priority 2006, dated 2014).

Molecular target: T1, A431 cells EGFR-TK phosphorylation stimulated by EGF (Homo sapiens, UniProt P00533)
T1 construct: against A431 cells EGFR-TK; endogenous in cells; host or cells: A431 cells
Experiment: Inhibition of cellular EGFR-TK phosphorylation stimulated by EGF in A431 cells
Type: cell-based
Conditions: A431 cells EGFR-TK phosphorylation stimulated by EGF (Table 4)
Experimental: Inhibition Experiment of Cellular Epidermal Growth Factor Receptor Tyrosine Kinase
1) A431 cells were cultured in a medium which was prepared by adding 10% FCS into another medium comprising 50% DMEM and 50% F12.
2) A431 cells grown in six-well plates were cultured in a serum-free medium for 24 hours. During the 24 hour period the medium was replenished once after 12 hours.
3) A solution containing a compound to be assessed was added the A431 cells and the cells were cultured for 2 hours, supplemented twice by a medium free of the compound, and then EGF (100 ng/well) was added, and cultured for 5 minutes.
4) A431 cell homogenate was prepared by Laemili buffer which comprised 2% sodium dodecyl sulfonate (SDS), 5% 2-mercaptoethanol, 10% glycerol and 5 mM Tris (pH 6.8).
5) The A431 cell homogenate was heated for 5 minutes at 100° C.
6) Proteins in the A431 cell homogenates were separated by PAGE and transferred onto a nitrocellulose membrane, and an infrared reading was obtained.

T1 sequence (P00533 25-1210): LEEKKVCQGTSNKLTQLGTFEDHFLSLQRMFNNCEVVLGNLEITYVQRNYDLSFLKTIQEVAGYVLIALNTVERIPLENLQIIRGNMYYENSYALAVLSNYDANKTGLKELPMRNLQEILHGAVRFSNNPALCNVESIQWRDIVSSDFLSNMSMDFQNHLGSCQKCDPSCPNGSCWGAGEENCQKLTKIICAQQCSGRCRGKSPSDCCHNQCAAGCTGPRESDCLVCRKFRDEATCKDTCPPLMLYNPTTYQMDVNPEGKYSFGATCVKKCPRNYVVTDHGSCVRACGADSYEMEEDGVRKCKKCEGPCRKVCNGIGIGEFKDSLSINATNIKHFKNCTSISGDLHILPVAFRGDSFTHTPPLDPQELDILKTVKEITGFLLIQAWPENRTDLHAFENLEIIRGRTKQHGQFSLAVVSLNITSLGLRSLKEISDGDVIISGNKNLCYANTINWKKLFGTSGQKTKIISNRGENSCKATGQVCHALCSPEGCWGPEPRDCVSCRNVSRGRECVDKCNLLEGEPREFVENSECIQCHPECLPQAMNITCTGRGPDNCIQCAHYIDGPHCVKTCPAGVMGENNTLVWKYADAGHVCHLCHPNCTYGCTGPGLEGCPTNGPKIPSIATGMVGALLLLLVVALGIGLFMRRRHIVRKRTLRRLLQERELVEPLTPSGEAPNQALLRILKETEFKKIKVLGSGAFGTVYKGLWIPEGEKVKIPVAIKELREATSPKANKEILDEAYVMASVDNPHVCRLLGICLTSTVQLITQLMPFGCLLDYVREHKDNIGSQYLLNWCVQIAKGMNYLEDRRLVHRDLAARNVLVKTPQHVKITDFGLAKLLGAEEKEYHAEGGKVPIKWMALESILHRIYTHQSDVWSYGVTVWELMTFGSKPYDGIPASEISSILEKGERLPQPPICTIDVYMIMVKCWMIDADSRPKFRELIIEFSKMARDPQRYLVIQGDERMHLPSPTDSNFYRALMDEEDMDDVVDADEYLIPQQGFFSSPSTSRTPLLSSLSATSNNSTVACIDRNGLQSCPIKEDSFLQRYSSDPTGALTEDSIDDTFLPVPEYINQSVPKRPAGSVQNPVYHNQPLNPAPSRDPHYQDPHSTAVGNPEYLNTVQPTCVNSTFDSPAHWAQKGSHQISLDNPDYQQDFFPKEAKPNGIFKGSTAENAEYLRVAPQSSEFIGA

EC50 | SMILES
900 nM | COc1cc2ncnc(Nc3ccc(Oc4ccccc4)c(OC)c3)c2cc1NC(=O)C=C1CCNCC1 [Example 110, N-(7-methoxy-4-(3-methoxy-4-phenoxyphenylamino)quinazolin-6-yl)-2-(piperidin-4-ylidene)acetamide]
230 nM | COCCOc1cc2ncnc(Nc3cccc(Br)c3)c2cc1NC(=O)C=C1CCN(C)CC1 [Example 65, N-(4-(3-bromophenylamino)-7-(2-methoxyethoxy)quinazolin-6-yl)-2-(1-methylpiperidin-4-ylidene)acetamide]
280 nM | COCCOc1cc2ncc(C#N)c(Nc3ccc(OCc4cccc(F)c4)c(Cl)c3)c2cc1N [Example 141, 4-(4-(3-fluorobenzyloxy)-3-chlorophenylamino)-6-amino-7-(2-methoxyethoxy)quinoline-3-carbonitrile]

Same assay, conditions: A-431; concentration of 3 μM; A431 cells, EGF stimulated; one-time measurement at a single concentration (preliminary selection); NA = No activity; read-out: Inhibition Percent (%)

SMILES | inhibition at 3 µM
O=C(C=C1CCNCC1)Nc1cc2c(Nc3cccc(Cl)c3)ncnc2cc1F [Example 30, N-(4-(3-chlorophenylamino)-7-fluoroquinazolin-6-yl)-2-(piperidin-4-ylidene)acetamide] | 55%
COc1cc2ncc(C#N)c(Nc3ccc(OCc4cccc(F)c4)c(Cl)c3)c2cc1NC(=O)C=C1CCNCC1 [Example 144, N-(4-(4-(3-fluorobenzyloxy)-3-chlorophenylamino)-3-cyano-7-methoxyquinolin-6-yl)-2-(piperidin-4-ylidene)acetamide] | 89%
COc1cc2ncnc(Nc3ccc(Oc4ccccc4)c(OC)c3)c2cc1NC(=O)C=C1CCNCC1 [Example 110, N-(7-methoxy-4-(3-methoxy-4-phenoxyphenylamino)quinazolin-6-yl)-2-(piperidin-4-ylidene)acetamide] | 59%
CCOc1cc2ncnc(Nc3ccc(OCc4ccccn4)c(Cl)c3)c2cc1NC(=O)C=C1CCNCC1 [Example 107, N-(4-(3-chloro-4-(pyridin-2-ylmethoxy)phenylamino)-7-ethoxyquinazolin-6-yl)-2-(piperidin-4-ylidene)acetamide] | 52%

Next, values leading:

inhibition at 3 µM | SMILES
24% | C#Cc1cccc(Nc2ncnc3ccc(NC(=O)C=C4CCN(Cc5ccccc5)CC4)cc23)c1 [Example 6, 2-(1-benzylpiperidin-4-ylidene)-N-(4-(3-ethynylphenylamino)quinazolin-6-yl)acetamide]
89% | COCCOc1cc2ncnc(Nc3cccc(Br)c3)c2cc1NC(=O)C=C1CCNCC1 [Example 40, N-(4-(3-bromophenylamino)-7-(2-methoxyethoxy)quinazolin-6-yl)-2-(piperidin-4-ylidene)acetamide]
64% | N#Cc1cnc2ccc(N)cc2c1Nc1ccc(F)c(Cl)c1 [Example 132, 6-amino-4-(3-chloro-4-fluorophenylamino)quinoline-3-carbonitrile]
73% | C#Cc1cccc(Nc2ncnc3ccc(NC(=O)C=C4CCN(CC)CC4)cc23)c1 [Example 5, 2-(1-Ethylpiperidin-4-ylidene)-N-(4-(3-ethynylphenylamino)quinazolin-6-yl)acetamide]
23% | C[C@@H](Nc1ncnc2ccc(NC(=O)C=C3CCNCC3)cc12)c1ccccc1 [Example 35, N-(4-((R)-1-phenylethylamino)quinazolin-6-yl)-2-(piperidin-4-ylidene)acetamide]
91% | COCCOc1cc2ncc(C#N)c(Nc3ccc(OCc4cccc(F)c4)c(Cl)c3)c2cc1N [Example 141, 4-(4-(3-fluorobenzyloxy)-3-chlorophenylamino)-6-amino-7-(2-methoxyethoxy)quinoline-3-carbonitrile]
82% | O=C(C=C1CCNCC1)Nc1cc2c(Nc3cccc(Br)c3)ncnc2cc1OCCCN1CCOCC1 [Example 37, N-(4-(3-bromophenylamino)-7-(3-morpholinopropoxy)quinazolin-6-yl)-2-(piperidin-4-ylidene)acetamide]
33% | O=C(C=C1CCNCC1)Nc1ccc2ncnc(Nc3ccccc3)c2c1 [Example 31, N-(4-(phenylamino)quinazolin-6-yl)-2-(piperidin-4-ylidene)acetamide]

System: A431 cells
Experiment: A431 cell growth inhibition assay (MTT assay)
Type: cell-based
Conditions: Homo sapiens, A-431, concentration of 3 μM, 72 hours, read-out: Inhibition Percent (%)
Experimental: A431 Cell Growth Inhibition Assay (MTT Assay)
A431, an epidermoid carcinoma cell line; The Cell Bank, Committee on Type Culture Collection Chinese Academy of Science, Shanghai.
Mix prepared medium DMEM and F12 in the proportion of 1:1, then add FBS to a final concentration of 10%.
Dissolved the dried compound sample with 100% DMSO to 2 mM. Then diluted the dissolved compound to 20 μM with cell complete growth medium.
Prior to the assay, cultured the A431 to logarithmic phase, and then removed medium from cell monolayers and wash the cells once with sterilized PBS. Aspriated the PBS and added 2 mL trypsin solution to cover the cell growth surface, removed 1 mL trypsin solution after soaking about 1 minute. Transferred the cell-culture plate to CO2 incubator; incubated at 37° C. for 8 minutes to allow cells to dissociate. After the cells detached, added 4 mL complete growth medium containing FBS with pipette to disperse them off and mixed gently to obtain a homogeneous cell suspension. Aspirated some of the cell suspension to a sterilized polypropylene tube, and determined the cell concentration by counting in a hematocytometer chamber under a microscope. Adjusted the cell concentration with growth medium to obtain 2.5×10^4 cells per milliliter.
Added 100 μL adjusted cell suspension to the 96-well cell-culture plate and occasionally mixed the cell suspension during the seeding process. After seeding cells, incubated the plate at 37° C. overnight with 5% CO2 in the CO2 incubator for cell attachment.
After the cell attachment, added 100 μL prepared compound solutions to the corresponding wells (add PBS to the ambient wells of the plate). The final compound concentrations ranged from 10 μM to 1.52 nM. Incubated the plate at 37° C. with 5% CO2 for 72 hours in the CO2 incubator.
After the exposure to the compound, removed the cell culture supernatant. Then added 100 μL 0.5 mg/mL MTT solution which dissolved in the growth medium without FBS. Incubated the plate at 37° C. with 5% CO2 for another 4 hours to allow the MTT reaction to proceed.
After the MTT reaction, discarded the MTT reaction solution. Added 100 μL DMSO to each well, and the plate was agitated on the plate shaker for several minutes to dissolve the formazan. Then, detected the absorbance at 490 nm using microplate reader.

SMILES | inhibition at 3 µM
CCN1CCC(=CC(=O)Nc2cc3c(Nc4ccc(F)c(Cl)c4)c(C#N)cnc3cc2OCCOC)CC1 [Example 181, N-(4-(3-chloro-4-fluorophenylamino)-3-cyano-7-(2-methoxyethoxy)quinolin-6-yl)-2-(1-ethylpiperidin-4-ylidene)acetamide] | 94%
C#Cc1cccc(Nc2c(C#N)cnc3cc(OCCOC)c(NC(=O)C=C4CCN(CC)CC4)cc23)c1 [Example 191, N-(3-cyano-4-(3-ethynylphenylamino)-7-(2-methoxyethoxy)quinolin-6-yl)-2-(1-ethylpiperidin-4-ylidene)acetamide] | 93%
C#Cc1cccc(Nc2c(C#N)cnc3cc(OCCOC)c(NC(=O)C=C4CCN(CCOC)CC4)cc23)c1 [Example 193, N-(3-cyano-4-(3-ethynylphenylamino)-7-(2-methoxyethoxy)quinolin-6-yl)-2-(1-(2-methoxyethyl)piperidin-4-ylidene)acetamide] | 90%
C#Cc1cccc(Nc2c(C#N)cnc3cc(OCCOC)c(NC(=O)C=C4CCN(C)CC4)cc23)c1 [Example 190, N-(3-cyano-4-(3-ethynylphenylamino)-7-(2-methoxyethoxy)quinolin-6-yl)-2-(1-methylpiperidin-4-ylidene)acetamide] | 91%
CCCN1CCC(=CC(=O)Nc2cc3c(Nc4ccc(F)c(Cl)c4)c(C#N)cnc3cc2OCCOC)CC1 [Example 182, N-(4-(3-chloro-4-fluorophenylamino)-3-cyano-7-(2-methoxyethoxy)quinolin-6-yl)-2-(1-propylpiperidin-4-ylidene)acetamide] | 90%
COCCOc1cc2ncc(C#N)c(Nc3cccc(Br)c3)c2cc1NC(=O)C=C1CCN(C)CC1 [Example 194, N-(4-(3-bromophenylamino)-3-cyano-7-(2-methoxyethoxy)quinolin-6-yl)-2-(1-methylpiperidin-4-ylidene)acetamide] | 89%
CCOc1cc2ncc(C#N)c(Nc3ccc(F)c(Cl)c3)c2cc1NC(=O)C=C1CCN(CC)CC1 [Example 178, N-(4-(3-chloro-4-fluorophenylamino)-3-cyano-7-ethoxyquinolin-6-yl)-2-(1-ethylpiperidin-4-ylidene)acetamide] | 88%
C#Cc1cccc(Nc2c(C#N)cnc3cc(OCCOC)c(NC(=O)C=C4CCN(CCC)CC4)cc23)c1 [Example 192, N-(3-cyano-4-(3-ethynylphenylamino)-7-(2-methoxyethoxy)quinolin-6-yl)-2-(1-propylpiperidin-4-ylidene)acetamide] | 93%
CCCN1CCC(=CC(=O)Nc2cc3c(Nc4ccc(F)c(Cl)c4)c(C#N)cnc3cc2OCC)CC1 [Example 179, N-(4-(3-chloro-4-fluorophenylamino)-3-cyano-7-ethoxyquinolin-6-yl)-2-(1-proplpiperidin-4-ylidene)acetamide] | 90%
COCCOc1cc2ncc(C#N)c(Nc3ccc(F)c(Cl)c3)c2cc1NC(=O)C=C1CCN(CCOC)CC1 [Example 183, N-(4-(3-chloro-4-fluorophenylamino)-3-cyano-7-(2-methoxyethoxy)quinolin-6-yl)-2-(1-(2-methoxyethyl)piperidin-4-ylidene)acetamide] | 90%
COCCOc1cc2ncc(C#N)c(Nc3ccc(F)c(Cl)c3)c2cc1NC(=O)C=C1CCN(C)CC1 [Example 180, N-(4-(3-chloro-4-fluorophenylamino)-3-cyano-7-(2-methoxyethoxy)quinolin-6-yl)-2-(1-methylpiperidin-4-ylidene)acetamide] | 92%
